This is an account of results in patent US20070286867A1, “Combination Therapy” (Fusion Antibodies Limited, priority 2003, published 2007).

For data set [1], the system named is MCF-7 cells. The experiment in a line: MTT cell viability assay in MCF-7 cells. In kind it is cell-based.
Method: (§3) Cell Viability Assays. Cell viability was assessed by MTT (3-(4,5-dimethylthiazol-2-yl)-2,5-diphenyltetrazolium bromide, Sigma) assay (12). […] MTT (0.5 mg/ml) was then added to each well and the cells incubated at 37° C. for a further 3 hours. The culture medium was removed and formazan crystals reabsorbed in 200 μL DMSO. Cell viability was determined by reading the absorbance of each well at 570 nm using a 96-well microplate reader (Molecular Devices, Wokingham, England). […] Twenty microlitres (20 μL) MTT (5 mg/ml) was then added to each well and the cells incubated at 37° C. for a further 3 hours. The culture medium was removed and formazan crystals reabsorbed in 200 μL DMSO. Cell viability was determined by reading the absorbance of each well at 570 nm using an ELISA plate reader (Molecular Devices).
(§4) Statistical Analyses. The nature of the interaction between the chemotherapeutic drugs and CH-11 was determined by calculating the R index (RI), which was initially described by Kern and later modified by Romaneli (13, 14). […] Synergism is then defined as an RI of greater than unity. […] To further assess the statistical significance of the interactions, the inventors designed a univariate ANOVA analysis using the SPSS software package. This was an additive model based on the null hypothesis that there was no interaction between the drugs.
The next data set has as its system HCT116p53^+/+ cells. Description: MTT cell viability assay in HCT116 p53 wild-type cells. It is filed as cell-based, human. The note with it: range of drug concentrations 24 hours, then CH-11 200 ng/ml for 48 hours. (In general: Formazan colour is commonly taken as a measure of viable cells.)
Another data set concerns HCT116p53^−/− cells. The experiment in a line: MTT cell viability assay in HCT116 p53 null cells. In kind it is cell-based, human. The note with it: range of drug concentrations 24 hours, then CH-11 200 ng/ml for 48 hours.
Data set [2] has as its system R175H p53 mutant cell line. As for the experimental part:
Plasmids containing the p53 mutations R175H and R248W were kindly provided by Prof. G. Lozano (MD Anderson Cancer Center, Houston). […] Cells were seeded on p90 dishes in Optimem, (Invitrogen) supplemented with 10% FCS, at a density of 1×10^5 cells/dish. Transfection was carried out the following day when the monolayer was approximately 70% confluent. Cells were cotransfected with 1 μg pIRESpuro3 DNA and 20 μg pC53NN p53 mutant DNA using Genejuice Transfection reagent (Novagen, CA, USA) according to the manufacturer's instructions. Stably transfected cells were selected over approximately 14 days in medium containing […] puromycin. […] The DO-1 antibody binds to an N-terminal epitope between amino acid residues 11 and 25.
Cell Viability Assays. Cell viability was assessed by MTT (3-(4,5-dimethylthiazol-2-yl)-2,5-diphenyltetrazolium bromide, Sigma) assay (12). […] Cell viability was determined by reading the absorbance of each well at 570 nm using a 96-well microplate reader (Molecular Devices, Wokingham, England). […]
Statistical Analyses. The nature of the interaction between the chemotherapeutic drugs and CH-11 was determined by calculating the R index (RI), which was initially described by Kern and later modified by Romaneli (13, 14). […]

Data set [3] relates to MCF-7 cells. The experiment in a line: Flow cytometry of propidium iodide stained cells, sub-G1/G0 apoptotic fraction, MCF-7. In kind it is cell-based. The note with it: 5 μM 5-FU alone 96 hours, or 72 hours followed by 250 ng/ml CH-11 24 hours. As for the experimental part:
(§1) Where flow cytometric analysis was employed in Examples 1 to 5, the following protocol was used. Cells were seeded at 1×10^5 per well of a 6-well tissue culture plate. […] DNA content of harvested cells was evaluated after propidium iodide staining of cells using the EPICS XL Flow Cytometer (Coulter, Miami, Fla.). Where flow cytometric analysis was employed in Examples 6 to 12, the following protocol was used. Cells were seeded at 1×10^5 per well of a 6-well tissue culture plate. […] DNA content of harvested cells was evaluated after propidium iodide staining of cells using the EPICS XL Flow Cytometer (Coulter). A FITC-conjugated monoclonal anti-human Fas antibody (DAKO) was used to determine cell surface expression of the receptor. Cells were collected and washed twice in PBS before incubating in the antibody (1/20 dilution) at 4° C. for 30 mins. A non-reactive FITC-conjugated mouse IgG1 antibody was used as a negative control for each sample. Following incubation the cells were washed twice with PBS containing 2% bovine serum albumin and fixed in 0.3 mL 4% paraformaldehyde. Samples were then analysed on the EPICS XL Flow Cytometer (Coulter).
A general note: A flow cytometer gives signals particle by particle.

The next data set concerns M7TS90-E6 cells. The experiment in a line: Flow cytometry sub-G1/G0 apoptotic fraction, M7TS90-E6. In kind it is cell-based. The note with it: 96 hours after drug treatment; RTX 100 nM, MTA 1 μM, 5-FU 10 μM. As for the experimental part:
as §1

Data set [4] deals with Fas. Description: Western blot of Fas expression in MCF-7 cells. It is filed as cell-based. On the procedure: (§2) Western Blotting. Western blots were performed as previously described (6). The Fas/CD95, Bc1-2 and BID (Santa Cruz Biotechnology, Santa Cruz, Calif.), caspase 8 (Oncogene Research Products, Darmstadt, Germany), p53 (Santa Cruz Biotechnology), and PARP (Pharmingen, BD Biosciences, Oxford, England) mouse monoclonal antibodies were used in conjunction with a horseradish peroxidase (HRP)-conjugated sheep anti-mouse secondary antibody (Amersham, Little Chalfont, Buckinghamshire, England). FasL rabbit polyclonal antibody (Santa Cruz Biotechnology) was used in conjunction with an HRP-conjugated donkey anti-rabbit secondary antibody (Amersham). TS sheep monoclonal primary antibody (Rockland, Gilbertsville, Pa.) was used in conjunction with an HRP-conjugated donkey anti-sheep secondary antibody (Serotech, Oxford, England). Equal loading was assessed using a β-tubulin mouse monoclonal primary antibody (Sigma).

The test system of data set [5] is Fas. Description: Western blot of Fas expression in HCT116 p53 wild-type cells. In kind it is cell-based, human. On the procedure:
as §2
A general note: Immunoblotting shows a protein as a band on a membrane.

Data set [6] concerns Fas. Description: Western blot of Fas expression in RKO cells. It is filed as cell-based. The note with it: 48 hours post-treatment; MTA data not shown. As for the experimental part: as §2
Data set [7] deals with Fas. The experiment in a line: Western blot of Fas expression in M7TS90-E6 cells. In kind it is cell-based. The note with it: 10 μM 5-FU, 100 nM RTX or 1 μM MTA. As for the experimental part:
as §2

Data set [8] concerns Fas. The experiment in a line: Western blot of Fas expression in H630 cells. It is filed as cell-based. The note with it: range of concentrations, 48 hours. On the procedure:
as §2

The test system of the next data set is FasL. Description: Western blot of FasL expression in MCF-7 cells. It is filed as cell-based. The note with it: IC60 doses, 72 hours. As for the experimental part:
as §2

The next data set has as its system procaspase 8, BID, PARP. The experiment in a line: Western blot of procaspase 8, BID and PARP in MCF-7 cells. In kind it is cell-based. The note with it: 5 μM 5-FU or 25 nM RTX 72 hours; CH-11 250 ng/ml 24 hours. On the procedure: as §2
The subject of another data set is Fas mRNA. Description: Northern blot of Fas mRNA in MCF-7 cells. It is filed as cell-based. The note with it: 48 hours, 5 μM 5-FU. As for the experimental part: Northern blot analysis. Northern blots were performed as described previously using a cDNA probe complementary to the Fas coding region (7). Equal loading was assessed using a P-tubulin cDNA probe.
The subject of a further data set is Fas/CD95 mRNA. Description: Real-time PCR of Fas/CD95 mRNA in HCT116 p53 null cells. In kind it is cell-based, human. The note with it: IC60 72hrs doses, 24 and 48 hours. On the procedure:
Real-time PCR was performed using a DNA Engine Opticon 2 (MJ Research Incorporated). TheDyNAmo SYBR Green qPCR kit (Finnzymes) was used as the fluoresent dye specific for double-stranded DNA. PCR conditions consisted of an initial denaturation step of 95° C. for 10 minutes, followed by 39 cycles of 94° C. for 10 secs, 55° C. for 20 secs and 72° C. for 20 secs, with a final extension of 72° C. for 10 minutes. A melting curve was included at the end of each run to check the specificity of the amplified product. Experiments were performed in triplicate to ensure reproducibility of the technique. On completion of the run the PCR products were run put on a 2% ethidium bromide agarose gel to confirm that their size matched that of the expected amplicon. Primer sequences were as follows: Fas (Forward) […], Fas (Reverse) […], 18S (Forward) […], 18S (Reverse) […].

A further data set relates to Fas/CD95 receptor. The experiment in a line: Flow cytometry of Fas/CD95 cell surface expression, HCT116 p53 wild-type. In kind it is cell-based, human. The note with it: 24 hours. On the procedure: as §1
For a further data set, the system named is Fas receptor. The experiment in a line: Fas/CD95 cell surface expression in p53 mutant H630 cell line (Example 11). It is filed as cell-based. The note with it: 48 hours; 5-FU 5 μM, CPT-11 5 μM, Oxaliplatin 1 μM. On the procedure:
as §1

Method for HCT116p53^+/+ cells: as §3, §4
Method for HCT116p53^−/− cells: as §3, §4

As to `O=c1[nH]cc(F)c(=O)[nH]1` [5-FU, 5-fluorouracil], the cytotoxicity at 5 µM in the data set on MCF-7 cells [1] (Homo sapiens, MCF7, read-out: decrease in cell viability compared to control) was about 60%. For the same molecule, the IC60 dose in the data set on MCF-7 cells [1] (MCF-7) stood at 5 µM. Besides, the entries for the “interaction with CH-11 in MTT assay” value in the data set on HCT116p53^+/+ cells and with HCT116p53^−/− cells were “significant synergy” and “only slight interaction”, respectively. Also, the “synergistic cytotoxicity of combination with CH-11” value in data set [2] is “synergistic cytotoxicity was demontsrated”. Besides, the “induction of apoptosis (sub-G1/G0 fraction)” value with MCF-7 cells [3] is recorded as about 2 fold. Further, the “induction of apoptosis by drug alone” value in the data set with M7TS90-E6 cells is listed as “little apoptosis”. For the same molecule, the Fas protein up-regulation with Fas [4] (72 hours, IC60 dose (5 μM 5-FU, 25 nM RTX)) is recorded as about 12 fold. Besides, the “Fas expression” value is recorded as “dramatic up-regulation” in the data set with Fas [4] (MTA data not shown, CH-11 alone 250 ng/ml, 5-FU alone 5 μM); “dramatic Fas up-regulation” with Fas [6]; “not significantly altered” in the data set with Fas [8]. The “induction of Fas/CD95 protein” value in the data set with Fas [5] (5-FU 5 μM, CPT-11 5 μM, Oxaliplatin 1 μM for 48 hours) is given as “significant induction”. Also, in the data set with Fas [5] (after 48 hours), the “up-regulation of Fas expression” value is over 10 fold. In addition, the “Fas up-regulation” value in the data set on Fas [7] was “did not result in Fas up-regulation”. Besides, in the data set with FasL, the “FasL expression” value was “unaffected”. For the same molecule, in the data set with procaspase 8, BID, PARP, the “activation of caspase 8 and BID (processing of procaspase 8 and full-length BID), words” value was “neither caspase 8, nor its substrate BID were activated”. Also, in the data set with Fas mRNA, the “Fas mRNA expression” value is reported as “up-regulated”. For the same molecule, the “maximum induction of Fas mRNA” value in the data set on Fas/CD95 mRNA worked out at 2 fold. Also, in the data set with Fas/CD95 receptor, the “induction of Fas/CD95 receptor cell surface expression” value is recorded as “significantly induce expression”. The “induction of the Fas receptor” value with Fas receptor is “Neither 5-FU nor Oxaliplatin treatment for 48 hours caused significant upregulation”.
